{"source": "patent US6716828B1", "about": "“Compounds, methods and pharmaceutical compositions for treating cellular damage, such as neural or cardiovascular tissue damage” (Guilford Pharmaceuticals, Inc., priority 1999, dated 2004)", "key": {"male Long-Evans rats": {"test_system": "male Long-Evans rats", "assay": "Focal cerebral ischemia (right distal MCA cauterization with bilateral temporary CCA occlusion)", "assay_type": "in vivo", "conditions": "for damaged volume (infarct volume): mean±SD", "procedure": "Focal cerebral ischemia is produced by cauterization of the right distal MCA (middle cerebral artery) with bilateral temporary common carotid artery occlusion in male Long-Evans rats for 90 minutes. All procedures performed on the animals are approved by the University Institutional Animal Care and Use Committee of the University of Pennsylvania. A total of 42 rats (weights: 230-340 g) obtained from Charles River were used in this study. The animals fasted overnight with free access to water prior to the surgical procedure.\nTwo hours prior to MCA occlusion, varying amounts (control, n=14; 5 mg/kg, n=7; 10 mg/kg, n=7; 20 mg/kg, n=7; and 40 mg/kg, n=7) of the compound, 3,4-dihydro-5-[4-(1-piperidinyl)-butoxy]-1(2H)-isoquinolinone (“DPQ”) were dissolved in dimethyl sulfoxide (DMSO) using a sonicator. A volume of 1.28 ml/kg of the resulting solution was injected intraperiotoneally into fourteen rats.\nThe rats were then anesthetized with halothane (4% for induction and 0.8%-[…] for the surgical procedure) in a mixture of 70% nitrous oxide and 30% oxygen. The body temperature was monitored by a rectal probe and maintained at 37.5±0.5° C. with a heating blanket regulated by a homethermic blanket control unit (Harvard Apparatus Limited, Kent, U.K.). A catheter (PE-50) was placed into the tail artery, and arterial pressure was continuously monitored and recorded on a Grass polygraph recorder (Model 7D, Grass Instruments, Quincy, Mass.). Samples for blood gas analysis (arterial pH, PaO2 and PaCO2) were also taken from the tail artery catheter and measured with a blood gas analyzer (ABL 30, Radiometer, Copenhagen, Denmark). Arterial blood samples were obtained 30 minutes after MCA occlusion.\nThe head of the animal was positioned in a stereotaxic frame, and a right parietal incision between the right lateral canthus and the external auditory meatus was made. Using a dental drill constantly cooled with saline, a 3 mm burr hole was prepared over the cortex supplied by the right MCA. 4 mm lateral to the sagittal suture and 5 mm caudal to the coronal suture. The dura mater and a thin inner bone layer were kept, care being taken to position the probe over a tissue area devoid of large blood vessels. The flow probe (tip diameter of 1 mm, fiber separation of 0.25 mm) was lowered to the bottom of the cranial burr hole using a micromanipulator. The probe was held stationary by a probe holder secured to the skull with dental cement. The microvascular blood flow in the right parietal cortex was continuously monitored with a laser Doppler flowmeter (FloLab, Moor, Devon, U.K., and Periflux 4001, Perimed, Stockholm, Sweden).\nFocal cerebral ischemia was produced by cauterization of the distal portion of the right MCA with bilateral temporary common caroud artery (CCA) occlusion by the procedure of Chen et al., “A Model of Focal Ischemic Stroke in the Rat: Reproducible Extensive Cortical Infarction”, Stroke 17:738-43 (1986) and/or Liu et al., “Polyethylene Glycol-conjugated Superoxide Dismutase and Catalase Reduce Ischemic Brain Injury”, Am. J. Physiol. 256:H589-93 (1989), both of which are hereby incorporated by reference.\nSpecifically, bilateral CCA's were isolated, and loops made from polyethylene (PE-10) catheter were carefully passed around the CCA's for later remote occlusion. […]"}, "PARP": {"molecular_target": "PARP (Homo sapiens, UniProt P09874)", "sequence (P09874 whole entry)": "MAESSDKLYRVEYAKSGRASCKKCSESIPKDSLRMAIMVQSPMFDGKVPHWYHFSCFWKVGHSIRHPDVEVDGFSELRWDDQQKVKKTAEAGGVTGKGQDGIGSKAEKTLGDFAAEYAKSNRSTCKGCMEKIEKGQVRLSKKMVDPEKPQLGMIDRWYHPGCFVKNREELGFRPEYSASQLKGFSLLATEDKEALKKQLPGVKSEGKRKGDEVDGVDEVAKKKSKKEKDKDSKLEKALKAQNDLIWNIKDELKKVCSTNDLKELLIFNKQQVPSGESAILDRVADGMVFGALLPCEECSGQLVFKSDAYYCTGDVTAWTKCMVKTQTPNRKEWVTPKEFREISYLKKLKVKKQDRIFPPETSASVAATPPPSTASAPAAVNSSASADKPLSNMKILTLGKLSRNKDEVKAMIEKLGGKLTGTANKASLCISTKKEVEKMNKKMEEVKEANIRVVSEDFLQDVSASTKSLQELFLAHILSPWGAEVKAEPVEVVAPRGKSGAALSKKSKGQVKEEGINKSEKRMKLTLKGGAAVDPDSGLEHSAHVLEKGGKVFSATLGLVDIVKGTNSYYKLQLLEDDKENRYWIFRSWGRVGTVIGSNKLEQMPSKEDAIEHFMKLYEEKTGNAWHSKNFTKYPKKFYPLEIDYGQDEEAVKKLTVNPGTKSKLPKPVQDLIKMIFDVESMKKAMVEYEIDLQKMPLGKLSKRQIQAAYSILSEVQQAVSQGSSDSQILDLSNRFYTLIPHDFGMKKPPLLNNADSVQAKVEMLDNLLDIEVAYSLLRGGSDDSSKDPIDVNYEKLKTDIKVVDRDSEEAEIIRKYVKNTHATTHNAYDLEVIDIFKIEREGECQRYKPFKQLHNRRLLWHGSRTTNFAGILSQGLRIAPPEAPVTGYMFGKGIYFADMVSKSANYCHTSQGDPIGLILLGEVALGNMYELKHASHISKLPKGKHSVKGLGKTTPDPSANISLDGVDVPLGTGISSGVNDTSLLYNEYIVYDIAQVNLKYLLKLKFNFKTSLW", "conditions": "read-out: IC50 for inhibiting PARP; reported by Suto et al.; cited from earlier work"}}}
{"compound": "O=C1NCCc2c(OCCCCN3CCCCC3)cccc21", "note": "[DPQ, 3,4-dihydro-5-[4-(1-piperidinyl)-butoxy]-1(2H)-isoquinolinone]", "values": [{"measurement": "damaged volume (infarct volume)", "setting": "male Long-Evans rats; 5 mg/kg i.p. 2 h before and 2 h after MCA occlusion, p<0.001 vs control", "value": "106.7±23.2", "unit": "mm^3"}, {"measurement": "damaged volume (infarct volume)", "setting": "male Long-Evans rats; 10 mg/kg i.p. 2 h before and 2 h after MCA occlusion, p<0.001 vs control", "value": "76.4±16.8", "unit": "mm^3"}, {"measurement": "damaged volume (infarct volume)", "setting": "male Long-Evans rats; 20 mg/kg i.p. 2 h before and 2 h after MCA occlusion, p<0.01 vs control", "value": "110.2±42.0", "unit": "mm^3"}, {"measurement": "damaged volume (infarct volume)", "setting": "male Long-Evans rats; 40 mg/kg i.p. 2 h before and 2 h after MCA occlusion, not significant vs control", "value": "135.6±44.8", "unit": "mm^3"}, {"measurement": "infarct volume, overall effect of in vivo administration", "setting": "male Long-Evans rats; focal cerebral ischemia model in the rat", "value": "substantial reduction in infarct volume"}, {"measurement": "IC50", "setting": "PARP", "value": 10, "unit": "nM"}]}
